For one series, the system named is BALB/C mice. Briefly: DSS induced acute colitis model of IBD, disease activity index (DAI). The class given is in vivo, mouse. The conditions noted are these: DSS treated control group average DAI 3; score 0 to 4. On the procedure: BALB/C mice were induced with acute colitis by feeding dextran sulfate sodium (DSS) in drinking water for one week and synthetic cathelicidin was administered intrarectally daily during colitis induction.
Mice were induced with acute colitis by being given 3% DSS (molecular weight, 36-50 kDa) according to the method described by Liu et al. (Carcinogenesis 24:1407-1413, 2003). The 3% DSS was given in their drinking water liar 7 days (from Day 0 to Day 7). Normal control mice received tap water throughout the experiment.
Intrarectal administration of AMPs Cathelicidin mCRAMP (5 mg/Kg/day), beta-Defensin 1 (1 mg/Kg/day), beta-Defensin 3 (1 mg/Kg/day), Elafin and SLPI, CCL20 (1 mg/Kg/day), lysozyme (3 mg/Kg/day)), as well as bactericidal/permeability increasing protein (1 mg/Kg/day). The mice were divided into two groups of 10, one receiving ordinary tap water and the disease group with DSS treatment. The peptides were intrarectally administrated once daily for 10 consecutive days beginning 3 dayd before DSS treatment. The PBS control mice received equal volumes of PBS (i.e., 100 ul) intrarectally.
In all tested animals, body weight, stool consistency, and presence of gross bleeding were recorded. Disease activity index (DAI) was calculated according to the method described by Cooper et al. (Lab Invest 69:238-249, 1993.). In brief, body weight loss, stool consistency, and bleeding were scored from 0 to 4, and DAI is the combined score divided by 3.
In addition, a parallel experiment using mCRAMP (0.8 mg/Kg) administered by injection into the peritoneum 3 times a week beginning at one week before DSS treatment. In this experiment, two groups of mice (10 in each) were compared were the control group received saline during DSS treatment while the treatment group received mCRAMP (0.8 mg/Kg) intraperitonculy 3 times a week.
AMPs were applied both individually or together in combination.

In a further series the test system is human psoriatic skin. Briefly: Human in-vivo psoriatic lesion treatment. The conditions noted are these: blind trial; for skin psoriatic lesion, 5 days treatment: Cathelicidin 10 ug/ml applied to lesions in a human subject. On the procedure:
Human in-vivo psoriatic lesion treatment: Cathelicidin 10 ug/ml or human beta defensin-2 diluted in PBS containing 0.1% BSA, or buffer carrier was applied to lesions in a human subject in a blind trial.

The next series deals with BETATC beta cell line. Briefly: Thymidine incorporation cell proliferation assay. The format is cell-based, mouse. The conditions noted are these: LL-37 2 microgram/ml, 3.5 days, vs PBS control. Here is the method: Murine beta cell line were treated for 3.5 days with LL-37 at 2 microgram/ml (red/dark bars) and compared to PBS control ([…]). Cell proliferation was estimated by measuring [3(H)]-thymidine incorporation and was expressed as percent of control untreated cells. A representative experiment is shown.
Antimicrobial peptides (AMPs): The antimicrobial peptides human cathelicidin LL-37: […] (SEQ ID NO: 14) was obtained from AnaSpec, USA (Catalogue numbers: 61302). Cathelicidin at 2 ug/ml was added to the plate and compared with control.
Thymidine incorporation cell proliferation assay: Cell proliferation was evaluated by measuring [3(H)]-thymidine incorporation into DNA. Cells were pulsed with [3(H)]-thymidine (1 microcurie/mL, ICN, Irvine, Calif.) for 1 hour, at 37 degrees centigrade. After incubation, cells were washed 3 times with PBS, incubated for 15 minutes at room temperature in 5% trichloroacetic acid and solubilized in 1% triton X-100. The radioactivity incorporated into the cells was counted in the [3(H)]-window of a Tricarb liquid scintillation counter. Mean values were determined from measurements of triplicate samples under each experimental condition for each experiment. Thymidine incorporation was determined as number of disintegrations per minute (DPM) per mg of protein.

The conditions of series [1]: Infection and immunity, November 1999, p. 6084-6089; cited from earlier work.

“Also recorded” adds a separate entry of the source. No end group written: not given here.

As for “Alpha-Defensin 6: antimicrobial peptide reported in the DSS colitis model (AFTCHCRRSCYSTEYSYGTCTVMGINHRFCCL; ends and bridges not checked; cysteine pairing not given here; UniProt Q01524 69-100, looked up)”, the “average DAI (disease activity index)” value in the series with BALB/C mice was found to be 1.8.
For “LLGDFFRKSKEKIGKEFKRIVQRIKDFLRNLVPRTES [LL-37]”, in the series with human psoriatic skin, the “skin psoriatic lesion, 5 days treatment” value was “slight improvement”. In the series on BETATC beta cell line, the “cell proliferation ([3(H)]-thymidine incorporation)” value was “significant BETATC beta cell line proliferation; also recorded: slight increase in cell proliferation”. Moreover, in series [1], the “half-life in blood of humans” value is “approximately 3.4 days”.
For “SKEKIGKEFKRIVQRIKDFLRNLVPRTES (listed as Homo sapiens) [SK29, fragment cathelicidin SK29]”, in the series with human psoriatic skin, the “skin psoriatic lesion, 5 days treatment” value is on record as “slight improvement”.
As for “beta-Defensin 3: antimicrobial peptide tested in the DSS colitis model (GIINTLQKYYCRVRGGRCAVLSCLPKEEQIGKCSTRGRKCCRRKK; ends and bridges not checked; cysteine pairing not given here; UniProt P81534 23-67, looked up)”, the “average DAI (disease activity index)” value in the series with BALB/C mice is given as 1.8.
On to “human beta defensin-2: Human Beta-Defensin-2 peptide purchased from Sigma-Aldrich (GIGDPVTCLKSGAICHPVFCPRRYKQIGTCGLPGTKCCKKP; ends and bridges not checked; cysteine pairing not given here; UniProt O15263 24-64, looked up) [reference compound]”, for which, in the series with human psoriatic skin (applied to lesions in a human subject, FIG. 20), the “skin psoriatic lesion, seven week course of treatment” value is reported as “worsening of skin psoriatic legion”. In addition, the “average DAI (disease activity index)” value in the series on BALB/C mice is recorded as 1.8.

B1: Alpha-Defensin 5: antimicrobial peptide reported in the DSS colitis model (peptide, UniProt Q01523 20-94, looked up)
Defensin alpha 5: ESLQERADEATTQKQSGEDNQDLAISFAGNGLSALRTSGSQARATCYCRTGRCATRESLSGVCEISGRLYRLCCR
modifications: Defensin-5
notes: antimicrobial peptide reported in the DSS colitis model
Consider B1, for which the “average DAI (disease activity index)” value with BALB/C mice came out at 1.8.

Source of the values: patent US8202835B2, “Disease treatment via antimicrobial peptides or their inhibitors” (priority 2005, dated 2012).
